According to article PMC8998355, “Diversity-Oriented Synthesis Catalyzed by Diethylaminosulfur-Trifluoride—Preparation of New Antitumor Ecdysteroid Derivatives” (International Journal of Molecular Sciences, 2022):

Key:
[1] = design: method as in PMID 34825653; settings: cited from earlier work
[2] = tested on: L5178Y mouse T-cell lymphoma cells; assay: MTT cytotoxicity assay (24 h, 1 × 10^4 cells); assay type: cell-based; settings: 24 h MTT, n = 3, read-out: Cytotoxicity (IC50 ± SD)
Protocol: (§1) To assess the compounds’ effect on cell growth and viability, we used two different experimental setups of MTT assay. This allowed a comparative evaluation of results obtained from a short-term (24 h) treatment of a relatively higher number (10,000) of cells and those from a long-term (72 h) treatment of a lower cell number (6000), which makes it possible to gain some insight into the cytotoxic vs. cytostatic properties of the compounds. Even though MTT assay is an endpoint detection method, i.e., it provides a single readout of viable cells at the end of the experiment, such a comparison offers a reliable tool to identify antiproliferative activity of compounds that are not cytotoxic.
(§2) L5178Y mouse T-cell lymphoma cells (ECACC Cat. No. 87111908) were obtained from FDA, Silver Spring, MD, USA. These were transfected with pHa MDR1/A retrovirus as described previously. ABCB1-expressing L5178YMDR cells were selected by culturing the infected cells with colchicine. The cell lines were cultured in McCoy’s 5A medium supplemented with 10% heat inactivated horse serum, 2 mM L-glutamine, and penicillin–streptomycin mixture.
(§3) MTT assay was performed in 96-well flat-bottomed microtiter plates as described before. Briefly, a 10 mM concentration stock solution in DMSO was prepared for each compound. These were diluted in 100 μL of McCoy’s 5A medium. Subsequently, 1 × 10^4 (cytotoxicity assay) or 6 × 10^3 (antiproliferative assay) T-cell mouse lymphoma cells in 100 μL of medium were added to each well, except for the medium control wells.
(§4) The culture plates were further incubated at 37 °C for 24 h (cytotoxicity assay) or 72 h (antiproliferative assay); at the end of the incubation period, 20 μL of MTT solution (from a 5 mg/mL stock) was added to each well. After incubation at 37 °C for 4 h, 100 μL of SDS solution (10% in 0.01 M HCI) was added to each well and the plates were further incubated at 37 °C overnight. The cell growth was determined by measuring the optical density at 540 nm (ref. 630 nm) with a Multiscan EX ELISA reader (Thermo Labsystems, Cheshire, WA, USA). IC50 values were calculated by variable slope nonlinear regression using the log(inhibitor) vs. normalized response of GraphPad Prism 5.01 (GraphPad Software Inc., San Diego, CA, USA).

[3] = tested on: L5178YMDR cells (ABCB1-expressing); assay: MTT cytotoxicity assay (24 h, 1 × 10^4 cells); assay type: cell-based; settings: Mus musculus, 24 h MTT, n = 3, read-out: Cytotoxicity (IC50 ± SD)
Protocol: as §1, §2, §3, §4

[4] = MTT cytotoxicity assay (24 h); assay type: cell-based; settings: human, MRC-5 human embryonal lung fibroblasts; MRC-5, 24 h MTT, n = 3; read-out: Cytotoxicity (IC50 ± SD)
Protocol: as §1
(§5) MRC-5 human embryonal lung fibroblasts (CCL-171, ATCC) were acquired from Sigma-Aldrich (Merck, KGaA, Darmstadt, Germany), and were cultured in EMEM medium containing 4.5 g/L glucose and supplemented with a non-essential amino acid mixture, a selection of vitamins, and 10% of FBS.
(§6) The adherent human fibroblast cells were seeded in 100 μL of EMEM medium overnight before each assay. Two-fold serial dilutions of the compounds (0.19–100 µM) were prepared in separate plates, then transferred to the plates containing the adherent cell lines.
as §4

[5] = tested on: L5178YMDR cells; assay: Combination assay with doxorubicin (checkerboard microplate method, MTT); assay type: cell-based, mouse; design: Dm (antilog of the x-intercept of the median-effect plot): unit not given here; settings: for CIavg (weighted average CI): (CI50 + 2CI75 + 3CI90)/6
Protocol: Compounds 7, 10, 11, 13, and 14 had sufficient individual antiproliferative properties for their assessment of chemo-sensitizing activity. This was carried out as an antiproliferative assay on L5178YMDR cells in combination with doxorubicin, arranged according to the checkerboard microplate method.
The checkerboard microplate method was used to evaluate the compounds’ interaction with doxorubicin, as described before. Briefly, doxorubicin (2 mg/mL, Teva Pharmaceuticals, Budapest, Hungary) was serially diluted in the horizontal direction (100 µL per well), and the ecdysteroid was subsequently diluted in the vertical direction (50 µL per well). L5178YMDR cells were re-suspended in culture medium and added to each test well in 50 µL to contain 1 × 10^4 cells per well, and 50 µL of medium was added to the medium control wells. The plates were incubated for 72 h at 37 °C in a CO2 incubator and, at the end of the incubation period, the cell growth was determined by MTT assay as described above. Cell viability data were analyzed by the Calcusyn software using the Chou method, and drug interactions were expressed as combination index (CI) values, in which 0 < CI < 1, CI = 1, and CI > 1 refer to synergism, additivity, and antagonism, respectively.

[6] = molecular target: T1, ABCB1 (Homo sapiens, UniProt P08183); assay: ABCB1 inhibition assay (rhodamine 123 accumulation, flow cytometry); assay type: cell-based; settings: human, probe rhodamine 123 (5.2 µM), L5178YMDR, rhodamine 123 accumulation, n = 1
T1 construct: expressed in transfected cells; host or cells: L5178Y mouse T-cell lymphoma cells transfected with pHa MDR1/A retrovirus, selected with colchicine (L5178YMDR)
Protocol: (§7) ABCB1 inhibition was determined by the intracellular accumulation of rhodamin 123 as reported before. Briefly, 2 × 10^6 cells/mL of L5178Y and L5178YMDR cell lines were re-suspended in serum-free McCoy’s 5A medium and distributed in 0.5 mL aliquots into Eppendorf centrifuge tubes. The compounds were added at a final concentration of 2 or 20 μM and the samples were incubated for 10 min at room temperature. Tariquidar was used as positive control and DMSO as negative control; for the latter, no activity was observed. Subsequently, 10 μL (5.2 μM final concentration) of the ABCB1 substrate fluorescent dye rhodamine 123 was added and the cells were incubated further for 20 min at 37 °C, washed twice and re-suspended in 1 mL PBS for analysis. Fluorescence of the cell population was measured with a PartecCyFlow® flow cytometer (Partec, Münster, Germany). Mean fluorescence intensity percentage was calculated for the treated vs. untreated L5178YMDR cells. Inhibition percentage for the treated cells was calculated from the corresponding values of the untreated L5178Y and L5178YMDR cells, representing 100% and 0% inhibition, respectively.

[7] = tested on: MRC-5 human embryonal lung fibroblasts; assay: MTT antiproliferative assay (72 h); assay type: cell-based; settings: for IC50: Homo sapiens, MRC5, MRC-5, 72 h MTT, n = 3, read-out: Antiproliferative Effect (IC50 ± SD)
Protocol: as §1, §5, §6, §4

[8] = tested on: L5178Y mouse T-cell lymphoma cells; assay: MTT antiproliferative assay (72 h, 6 × 10^3 cells); assay type: cell-based; settings: for IC50: Mus musculus
Protocol: as §1, §2, §3, §4

[9] = tested on: L5178YMDR cells (ABCB1-expressing); assay: MTT antiproliferative assay (72 h, 6 × 10^3 cells); assay type: cell-based; settings: Mus musculus, 72 h MTT, n = 3, read-out: Antiproliferative Effect (IC50 ± SD)
Protocol: as §1, §2, §3, §4

[10] = molecular target: T2, ABCB1 transporter (Homo sapiens, UniProt P08183); assay: ABCB1 inhibition assay (rhodamine 123 accumulation, flow cytometry); assay type: cell-based; settings: L5178YMDR, 2 or 20 µM
T2 construct: expressed in transfected cells; host or cells: L5178Y mouse T-cell lymphoma cells transfected with pHa MDR1/A retrovirus, selected with colchicine (L5178YMDR)
Protocol: as §7

[11] = drug ratio 23.2:1, with doxorubicin
[12] = drug ratio 46.4:1, with doxorubicin
[13] = drug ratio 92.8:1, with doxorubicin
[14] = drug ratio 185.6:1, with doxorubicin
[15] = drug ratio 371.2:1, with doxorubicin
[16] = L5178Y, 72 h MTT, n = 3, read-out: Antiproliferative Effect (IC50 ± SD)

SMILES | IC50 [2] | IC50 [3] | IC50 at 24 h [4] | CI at ED75 [5, 11] | CI at ED90 [5, 11] | Dm (antilog of the x-intercept of the median-effect plot) [5, 11] | CIavg (weighted average CI) [5, 11] | CI at ED75 [5, 12] | CI at ED90 [5, 12] | Dm (antilog of the x-intercept of the median-effect plot) [5, 12] | CIavg (weighted average CI) [5, 12] | CI at ED75 [5, 13] | CI at ED90 [5, 13] | Dm (antilog of the x-intercept of the median-effect plot) [5, 13] | CIavg (weighted average CI) [5, 13] | CI at ED75 [5, 14] | CI at ED90 [5, 14] | Dm (antilog of the x-intercept of the median-effect plot) [5, 14] | CIavg (weighted average CI) [5, 14] | inhibition at 20 min, 2 µM [6] | further results
CC(C)(O)CC[C@@H](O)[C@](C)(O)[C@H]1CC[C@@]2(O)C3=CC(=O)[C@@H]4C[C@@H](O)[C@@H](O)C[C@]4(C)[C@H]3CC[C@]12C [20-hydroxyecdysone] |  |  |  |  |  |  |  |  |  |  |  |  |  |  |  |  |  |  |  |  | MasR activity, in words [1]: agonist
CC(=O)[C@H]1CC[C@@]2(F)C3=CC(=O)[C@@H]4C[C@H]5OC(C)(C)O[C@H]5C[C@]4(C)[C@H]3CC[C@]12C [Compound 11] | 91.9 ± 9.3 µM | 81.9 ± 2.9 µM | > 100 µM | 0.56 | 0.41 | 7.00 | 0.52 | 0.55 | 0.39 | 11.66 | 0.51 | 0.53 | 0.38 | 15.83 | 0.49 | 0.66 | 0.48 | 24.06 | 0.61 | -0.57% | CI at ED75 [5, 15]: 0.72; CI at ED90 [5, 15]: 0.55; Dm (antilog of the x-intercept of the median-effect plot) [5, 15]: 28.63; CIavg (weighted average CI) [5, 15]: 0.67; inhibition at 20 min, 20 µM [6]: -0.51%; IC50 [7]: 10 ± 2.1 µM; IC50 [8, 16]: 31.8 ± 2.1 µM; IC50 [9]: 55.7 ± 5.9 µM
CC(=O)N[C@H]1CC=C2C3=CC(=O)[C@@H]4C[C@H]5OC(C)(C)O[C@H]5C[C@]4(C)[C@H]3CC[C@@]21C [Compound 13] | > 100 µM | > 100 µM | 35 ± 3.2 µM | 0.55 | 0.49 | 8.17 | 0.53 | 0.51 | 0.39 | 14.17 | 0.48 | 0.51 | 0.47 | 17.54 | 0.50 | 0.68 | 0.65 | 29.89 | 0.67 | 0.09% | interaction with doxorubicin, in words ([5]; checkerboard, 72 h): relevant synergism with doxorubicin already at 50% inhibition; direct ABCB1 / efflux pump inhibition, in words [10]: inactive; inhibition at 20 min, 20 µM [6]: -0.01%; IC50 [7]: 12 ± 1.9 µM; selective antiproliferative activity against both tumor cell lines ([7]; tumor cell lines vs MRC-5): ca. 2.5 times; IC50 [8, 16]: 4.6 ± 0.8 µM; IC50 ([8]; text summary for both lymphoma cell lines (L5178Y and L5178YMDR), read-out: antiproliferative activity on the lymphoma cell lines (IC50)): ~4.7 µM; antiproliferative activity stronger than cytotoxicity ([8]; lymphoma cell lines, ratio of cytotoxic to antiproliferative IC50): over 20 times; IC50 [9]: 4.8 ± 0.6 µM
CC(=O)N[C@H]1CC[C@@]2(F)C3=CC(=O)[C@@H]4C[C@H]5OC(C)(C)O[C@H]5C[C@]4(C)[C@H]3CC[C@]12C [Compound 14] | > 100 µM | > 100 µM | > 100 µM | 0.73 | 0.63 | 9.04 | 0.70 | 0.72 | 0.60 | 13.53 | 0.68 | 0.86 | 0.74 | 20.47 | 0.82 | 1.26 | 1.24 | 30.97 | 1.25 | 0.2% | inhibition at 20 min, 20 µM [6]: -0.12%; IC50 [7]: > 100 µM; IC50 [8, 16]: 71.6 ± 1.5 µM; IC50 [9]: 65.9 ± 2.1 µM
